Columns and labels:
[1] = target: MMP-13 catalytic domain (Homo sapiens, UniProt P45452); assay: Thiopeptolide substrate hydrolysis inhibition assay, MMP-13 catalytic domain; type: biochemical
Description: The methods described below for the inhibition of MMP-13 may also be adapted and used to determine the ability of the compounds of Formula I to inhibit other matrix metalloproteases such as MMP-1, MMP-2, MMP-3, MMP-7, MMP-8, MMP-9, MMP-12, MMP-14, MMP-17, and the like.
Thiopeptolide substrates show virtually no decomposition or hydrolysis at or below neutral pH in the absence of a matrix metalloproteinase enzyme. A typical thiopeptolide substrate commonly utilized for assays is Ac-Pro-Leu-Gly-thioester-Leu-Leu-Gly-OEt. A 100 μL assay mixture will contain 50 mM of N-2-hydroxyethylpiperazine-N′-2-ethanesulfonic acid buffer (“HEPES,” pH 7.0), 10 mM CaCl2, 100 μM thiopeptolide substrate, and 1 mM 5,5′-dithio-bis-(2-nitro-benzoic acid) (DTNB). […] Assays are carried out with and without matrix metalloproteinase inhibitor compounds, and the amount of hydrolysis is compared for a determination of inhibitory activity of the test compounds.

[2] = target: T1, MMP-3 catalytic domain (Homo sapiens, UniProt P08254); assay: Thiopeptolide substrate hydrolysis inhibition assay, MMP-3 catalytic domain; type: biochemical; settings: MES buffer pH 6.0, read-out: MMP-3CD IC50
T1 construct: MMP-1 full-length, MMP-3 catalytic domain, MMP-7 full-length
Description: (§1) The assay methods of Biological Examples 1-4 measure the amount by which a test compound reduces the hydrolysis of a thiopeptolide substrate catalyzed by a matrix metalloproteinase enzyme or catalytic domain thereof. It has been shown previously by Ye Qi-Zhuang, Hupe D., and Johnson L. (Current Medicinal Chemistry, 1996;3:407-418) that inhibitor activity against a catalytic domain of an MMP is predictive of the inhibitor activity against the respective full-length MMP enzyme. The methods described below for the inhibition of MMP-13 may also be adapted and used to determine the ability of the compounds of Formula I to inhibit other matrix metalloproteases such as MMP-1, MMP-2, MMP-3, MMP-7, MMP-8, MMP-9, MMP-12, MMP-14, MMP-17, and the like.
(§2) Thiopeptolide substrates show virtually no decomposition or hydrolysis at or below neutral pH in the absence of a matrix metalloproteinase enzyme. A typical thiopeptolide substrate commonly utilized for assays is Ac-Pro-Leu-Gly-thioester-Leu-Leu-Gly-OEt. A 100 μL assay mixture will contain 50 mM of N-2-hydroxyethylpiperazine-N′-2-ethanesulfonic acid buffer (“HEPES,” pH 7.0), 10 mM CaCl2, 100 μM thiopeptolide substrate, and 1 mM 5,5′-dithio-bis-(2-nitro-benzoic acid) (DTNB). […] The change in absorbance at 405 nm is monitored on a Thermo Max microplate reader (molecular Devices, Menlo Park, Calif.) at room temperature (22° C.). The calculation of the amount of hydrolysis of the thiopeptolide substrate is based on E412=13600 M^−1 cm^−1 for the DTNB-derived product 3-carboxy-4-nitrothiophenoxide. Assays are carried out with and without matrix metalloproteinase inhibitor compounds, and the amount of hydrolysis is compared for a determination of inhibitory activity of the test compounds.
(§3) Test compounds were evaluated at various concentrations in order to determine their respective IC50 values, the micromolar concentration of compound required to cause a 50% inhibition of catalytic activity of the respective enzyme.
It should be appreciated that the assay buffer used with MMP-3CD was 50 mM N-morpholinoethane sulfonate (“MES”) at pH 6.0 rather than the HEPES buffer at pH 7.0 described above.
(§4) Some representative compounds of Formula I have been evaluated for their ability to inhibit MMP-13, MMP-1FL, MMP-3CD, MMP-7FL, MMP-8FL, MMP-9FL, MMP-12CD, MMP-14CD, and/or MMP-17CD, wherein FL means full-length enzyme and CD means a catalytic domain of the full-length enzyme. Test compounds can be evaluated at various concentrations in order to determine their respective IC50 values, the micromolar concentration of compound required to cause a 50% inhibition of the hydrolytic activity of the respective enzyme.
(§5) Certain compounds of Formula I have also been assayed with MMP-1 full-length, MMP-3 catalytic domain, MMP-7 full-length, MMP-8 full-length, MMP-9 full-length, MMP-12 catalytic domain, MMP-14 catalytic domain, and MMP-17 catalytic domain. […] In Biological Table 2, the compound example numbers for the Compound Examples are indicated in the column labelled “Ex. No.”

[3] = target: T2, MMP-12 catalytic domain (Homo sapiens, UniProt P39900); assay: Thiopeptolide substrate hydrolysis inhibition assay, MMP-12 catalytic domain; type: biochemical; settings: read-out: MMP-12CD IC50
T2 construct: MMP-9 full-length, MMP-12 catalytic domain, MMP-14 catalytic domain
Description: as §1, §2, §3, §4, §5

[4] = target: T3, MMP-14 catalytic domain (Homo sapiens, UniProt P50281); assay: Thiopeptolide substrate hydrolysis inhibition assay, MMP-14 catalytic domain; type: biochemical; settings: read-out: MMP-14CD IC50
T3 construct: MMP-14 catalytic domain, and MMP-17 catalytic domain
Description: as §1, §2, §3, §4, §5

[5] = target: T4, MMP-17 catalytic domain (Homo sapiens, UniProt Q9ULZ9); assay: Thiopeptolide substrate hydrolysis inhibition assay, MMP-17 catalytic domain; type: biochemical; settings: read-out: MMP-17 CD IC50
T4 construct: MMP-14 catalytic domain, and MMP-17 catalytic domain
T4 sequence (Q9ULZ9 126-295 limits assumed): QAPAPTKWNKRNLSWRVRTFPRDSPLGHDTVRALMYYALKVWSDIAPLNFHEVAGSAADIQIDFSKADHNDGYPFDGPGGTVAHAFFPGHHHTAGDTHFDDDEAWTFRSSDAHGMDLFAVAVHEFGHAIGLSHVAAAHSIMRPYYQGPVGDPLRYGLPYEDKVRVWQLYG
Description: as §1, §2, §3, §4, §5

[6] = Pharmacokinetics in Sprague-Dawley rats (single IV or oral dose); type: in vivo, rat; settings: rat, blood, Sprague-Dawley rats, single 5 mg/kg intravenous dose
Description: For comparison purposes, a reference compound was separately characterized according to its pharmacokinetics properties except AUC in a similar manner. The reference compound (“Reference Compound 1”) was the compound of Example 188 of PCT International Patent Application Publication number WO 02/064572 A1, which is also described in PCT International Patent Application Publication number WO 02/064080 A2 in Table IVb on page 76, 5th species from the top. […] Reference Compound 1 is named 4-[6-(4-methoxy-benzylcarbamoyl)- 1 -methyl-2,4-dioxo- 1,4-dihydro-2H-pyrido[3,4-d]pyrimidin-3-ylmethyl]-benzoic acid, and has the structure drawn below: [drawing 98]

T2 sequence (P39900 106-263 limits assumed): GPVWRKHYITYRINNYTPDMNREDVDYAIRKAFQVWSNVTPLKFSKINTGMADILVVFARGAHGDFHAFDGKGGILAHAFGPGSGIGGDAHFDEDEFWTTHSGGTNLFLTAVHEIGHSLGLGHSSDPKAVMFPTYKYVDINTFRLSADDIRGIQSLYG
T1 sequence (P08254 100-272 limits assumed): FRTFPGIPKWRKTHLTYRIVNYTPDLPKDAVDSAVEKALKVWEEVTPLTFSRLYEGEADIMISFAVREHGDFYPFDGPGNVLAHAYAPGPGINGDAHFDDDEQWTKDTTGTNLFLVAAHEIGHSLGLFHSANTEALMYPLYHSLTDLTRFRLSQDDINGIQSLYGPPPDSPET

SMILES | IC50 [1] [µM] | IC50 [2] [µM] | IC50 [3] [µM] | IC50 [4] [µM] | IC50 [5] [µM] | clearance ([6]; read-out: IV CL) [mL/min/kg] | half-life ([6]; read-out: IV T1/2 (converted)) [min]
CSc1ccc(CNC(=O)c2cc3c(=O)n(Cc4ccc(C(=O)O)cc4)cnc3cn2)cc1 [Compound Example 7, 4-[6-(4-methylsulfanyl-benzylcarbamoyl)-4-oxo-4H-pyrido[3,4-d]pyrimidin-3-ylmethyl]-benzoic acid] | 0.011 | > 10 | 14 | > 30 | > 100 | – | –
O=C(O)c1ccc(Cn2cnc3cnc(C(=O)NCc4ccc(F)cc4)cc3c2=O)cc1 [Compound Example 8, 4-[6-(4-fluoro-benzylcarbamoyl)-4-oxo-4H-pyrido[3,4-d]pyrimidin-3-ylmethyl]-benzoic acid] | 0.0043 | 33 | > 30 | > 100 | > 100 | – | –
O=C(O)c1ccc(Cn2cnc3cnc(C(=O)NCc4ccccc4)cc3c2=O)cc1 [Compound Example 9] | 0.02 | > 30 | > 30 | > 100 | > 100 | – | –
COc1ccc(CNC(=O)c2cc3c(=O)n(Cc4ccc(C(=O)O)cc4)c(=O)n(C)c3cn2)cc1 [Reference Compound 1, 4-[6-(4-methoxy-benzylcarbamoyl)-1-methyl-2,4-dioxo-1,4-dihydro-2H-pyrido[3,4-d]pyrimidin-3-ylmethyl]-benzoic acid, reference compound] | – | – | – | – | – | 48.9 | 36

— US20050085447A1, “Pyrido[3,4-d]pyrimidine derivatives as matrix metalloproteinase-13 inhibitors” (Warner-Lambert Company LLC, priority 2003, published 2005)
